Assay results reported in US7186545B2, “Probiotic strains from Lactobacillus salivarius and antimicrobial agents obtained therefrom” (Enterprise Ireland, priority 1997, dated 2007).

Tested on: Lactobacillus isolates
Assay: Antibiotic disc susceptibility assay
Conditions: sensitive if zone of 1 mm or greater
Experimental: Antibiotic sensitivity profiles of the isolates were determined using the ‘disc susceptibility’ assay. Cultures were grown up in the appropriate broth medium for 24–48 h, spread-plated (100 μl) onto agar media and discs containing known concentrations of the antibiotics were placed onto the agar. Strains were examined for antibiotic sensitivity after 1–2 days incubation at 37° under anaerobic conditions. Strains were considered sensitive if zones of inhibition of 1 mm or greater were seen.

Row | Compound | Sensitivity of the lactobacilli to the antibiotic
1 | NCC[C@H](O)C(=O)N[C@@H]1C[C@H](N)[C@@H](O[C@H]2O[C@H](CN)[C@@H](O)[C@H](O)[C@H]2O)[C@H](O)[C@H]1O[C@H]1O[C@H](CO)[C@@H](O)[C@H](N)[C@H]1O [amikacin] | resistant
2 | CC1(C)S[C@@H]2[C@H](NC(=O)[C@H](N)c3ccc(O)cc3)C(=O)N2[C@H]1C(=O)O [amoxycillin] | sensitive
3 | CC1(C)S[C@@H]2[C@H](NC(=O)[C@H](N)c3ccccc3)C(=O)N2[C@H]1C(=O)O [ampicillin] | sensitive
4 | CO/N=C(\C(=O)N[C@@H]1C(=O)N2C(C(=O)O)=C(COC(C)=O)CS[C@H]12)c1csc(N)n1 [ceftaxime] | sensitive
5 | CO/N=C(\C(=O)N[C@@H]1C(=O)N2C(C(=O)O)=CCS[C@H]12)c1csc(N)n1 [ceftizoxime] | Variable sensitivity
6 | CO/N=C(\C(=O)N[C@@H]1C(=O)N2C(C(=O)O)=C(CSc3nc(=O)c(=O)[nH]n3C)CS[C@H]12)c1csc(N)n1 [ceftriaxone] | sensitive
7 | CC1=C(C(=O)O)N2C(=O)[C@@H](NC(=O)[C@H](N)C3=CCC=CC3)[C@H]2SC1 [cephradine] | sensitive
8 | O=C(N[C@H](CO)[C@H](O)c1ccc([N+](=O)[O-])cc1)C(Cl)Cl [chloramphenicol] | sensitive
9 | O=C(O)c1cn(C2CC2)c2cc(N3CCNCC3)c(F)cc2c1=O [ciprofloxacin] | sensitive
10 | CCn1cc(C(=O)O)c(=O)c2ccc(C)nc21 [nalidixic acid] | resistant
11 | CCN[C@@H]1C[C@H](N)[C@@H](O[C@H]2OC(CN)=CC[C@H]2N)[C@H](O)[C@H]1O[C@H]1OC[C@](C)(O)[C@H](NC)[C@H]1O [netilmicin] | resistant
12 | COc1cc(Cc2cnc(N)nc2N)cc(OC)c1OC [trimethoprim] | resistant
13 | CN[C@H](CC(C)C)C(=O)N[C@H]1C(=O)N[C@@H](CC(N)=O)C(=O)N[C@H]2C(=O)N[C@H]3C(=O)N[C@H](C(=O)N[C@H](C(=O)O)c4cc(O)cc(O)c4-c4cc3ccc4O)[C@H](O)c3ccc(c(Cl)c3)Oc3cc2cc(c3O[C@@H]2O[C@H](CO)[C@@H](O)[C@H](O)[C@H]2O[C@H]2C[C@](C)(N)[C@H](O)[C@H](C)O2)Oc2ccc(cc2Cl)[C@H]1O [vancomycin] | resistant
14 | gentamicin | resistant
15 | teicoplanin | Variable sensitivity
